Assay results from patent US8710062B2, “Piperazinedione compounds” (Taipei Medical University, priority 2011, dated 2014).
Counter-ions that a name gives are not always drawn.

System: 60 Human Cancer Cell Lines (NCI-60)
Experiment: Broad-spectrum anticancer activity (NCI-60, SRB)
Type: cell-based
Conditions: mean against leukemia, NSCLC, colon, CNS, melanoma, ovarian, renal, prostate and breast cancer, 48 h, read-out: mean pIC50 (converted)
Description: Broad-spectrum anticancer activities were conducted by NCI/NIH following standard protocols.
Human tumor cell lines were grown in RPMI 1640 medium containing 5% fetal bovine serum and 2 mM L-glutamine. For a typical screening experiment, cells were inoculated into 96-well microtiter plates in 100 μL at the plating densities ranging from 5,000 to 40,000 cells/well depending on the doubling time of individual cell lines. After cell inoculation, the microtiter plates were incubated at 37° C., 5% CO2, 95% air and 100% relative humidity for 24 h prior to addition of experimental drugs. […]
Following drug addition, the plates were incubated for an additional 48 h at 37° C., 5% CO2, 95% air, and […]. […] Bound stain was subsequently solubilized with 10 mM trizma base, and the absorbance was read on an automated plate reader at a wavelength of 515 nm. […] Using the seven absorbance measurements [time zero, (Tz), control growth, (C), and test growth in the presence of drug at the five concentration levels (Ti)], the percentage growth was calculated at each of the drug concentrations levels. Percentage growth inhibition was calculated as: [(Ti−Tz)/(C−Tz)]×100 for concentrations for which Ti>/=Tz [(Ti−Tz)/Tz]×100 for concentrations for which Ti<Tz.
Three dose response parameters were calculated for each experimental agent. […]

## O=c1[nH]/c(=C\c2ccc(OCc3ccncc3)cn2)c(=O)[nH]/c1=C\c1ccccc1 [Compound 2, 3-benzylidene-6-((5-(pyridin-4-ylmethoxy)pyridin-2-yl)methylene)piperazine-2,5-dione methanesulfonic acid salt]
  IC50: 52.5 nM
